# From PubChem BioAssay AID1224921 (Broad Institute, 2016)
# The source made the active and inactive calls. The rule behind the calls is not given here.
# Test system: Clostridioides difficile clinical isolate growth, OD600, 24 h
# Test: C. difficile growth inhibition, confirmation, 4-point retest (AID 1224921)
row,Structure (SMILES),AC50
1,C[C@@H]1CN([C@@H](C)CO)C(=O)c2cccc(NC(=O)Nc3ccc(C(F)(F)F)cc3)c2O[C@@H]1CN(C)Cc1ccc(-c2ccccc2)cc1,< 0.5 µM
2,C[C@@H]1CN([C@H](C)CO)C(=O)c2cc(NC(=O)Nc3cccc4ccccc34)ccc2O[C@@H](C)CCCCO[C@@H]1CN(C)CC1CCCCC1,> 60 µM (inactive)
3,O=C(C[C@@H]1CC[C@H]2[C@@H](COC[C@@H](O)CN2C(=O)Nc2ccc(Cl)c(Cl)c2)O1)NC1CCC1,3.86 µM
4,O=C(NCC[C@H]1CC[C@@H](NC(=O)c2cccnc2)[C@@H](CO)O1)Nc1ccc(C(F)(F)F)cc1,2.9 µM
5,CO[C@@H](CN(C)S(=O)(=O)c1cn(C)cn1)[C@H](C)CN(C(=O)Nc1ccc(C(F)(F)F)cc1)[C@@H](C)CO,2.44 µM
6,CO[C@H]1CN(C)C(=O)c2ccc(NC(=O)c3nc4ccccc4s3)cc2OC[C@H](C)N(Cc2ccncc2)C[C@@H]1C,> 60 µM (inactive)
7,O=C(C[C@H]1CC[C@H]2[C@@H](COC[C@@H](O)CN2C(=O)Nc2ccc(C(F)(F)F)cc2)O1)NCC1CC1,1.18 µM
8,C[C@H]1CN([C@@H](C)CO)C(=O)CCCn2nncc2CO[C@@H]1CN(C)C(=O)Nc1ccc(C(F)(F)F)cc1,17.7 µM
9,O=C(C[C@H]1CC[C@H]2[C@@H](COC[C@H](O)CN2C(=O)Nc2ccc(Cl)c(Cl)c2)O1)NCc1ccc(Cl)c(Cl)c1,0.886 µM
10,C[C@H](CO)N1C[C@H](C)[C@H](CN(C)C(=O)Nc2ccc(C(F)(F)F)cc2)Oc2c(NC(=O)Nc3ccccc3)cccc2C1=O,> 60 µM (inactive)
11,CCC(=O)N[C@H]1CC[C@H](CCNC(=O)Nc2ccc(C(F)(F)F)cc2)O[C@@H]1CO,3.05 µM
12,CCNC(=O)C[C@H]1CC[C@@H]2[C@H](COC[C@@H](O)CN2C(=O)Nc2ccc(Cl)c(Cl)c2)O1,4.25 µM
13,O=C(C[C@@H]1CC[C@@H]2[C@H](COC[C@H](O)CN2C(=O)Nc2ccc(Cl)c(Cl)c2)O1)NC1CCC1,7.33 µM
14,C[C@@H]1CN([C@H](C)CO)S(=O)(=O)c2ccc(C#CCC3CCCC3)cc2O[C@H]1CN(C)C,16.9 µM
15,O=C(C[C@H]1CC[C@@H]2[C@H](COC[C@H](O)CN2C(=O)Nc2ccc(C(F)(F)F)cc2)O1)NCC1CC1,3.63 µM
16,O=C(C[C@H]1CC[C@H]2[C@@H](COC[C@@H](O)CN2C(=O)Nc2ccc(Cl)c(Cl)c2)O1)NC1CCC1,4.29 µM
17,CCC(=O)N[C@@H]1CC[C@H](CCNC(=O)Nc2ccc(C(F)(F)F)cc2)O[C@H]1CO,7.27 µM
18,C[C@@H](NC(=O)C[C@@H]1CC[C@@H]2[C@H](COC[C@H](O)CN2C(=O)Nc2cc(Cl)cc(Cl)c2)O1)c1ccccc1,9.64 µM

row,Structure (SMILES),AC50
1,COc1ccccc1C#Cc1ccc([C@H]2[C@@H](C#N)N(C(=O)C3CCCCC3)[C@H]2CO)cc1,30 µM
2,CC(=O)N[C@H]1CC[C@@H](CCNC(=O)Nc2ccc(C(F)(F)F)cc2)O[C@@H]1CO,10.8 µM
3,CCCNC(=O)N1[C@@H](C#N)[C@H](c2ccc(C#Cc3ccc(F)cc3)cc2)[C@@H]1CO,36.3 µM
4,C[C@@H]1CN([C@H](C)CO)C(=O)Cc2cc(NS(=O)(=O)c3ccc(Cl)cc3)ccc2O[C@H]1CN(C)CC1CCCCC1,18 µM
5,COc1ccccc1S(=O)(=O)N(C)C[C@@H]1OCc2ccccc2-c2c(n(C)c3ccccc23)C(=O)N([C@H](C)CO)C[C@@H]1C,> 60 µM (inactive)
6,C[C@@H](NC(=O)C[C@H]1CC[C@H]2[C@@H](COC[C@H](O)CN2C(=O)Nc2cccc(Cl)c2)O1)c1ccccc1,9.84 µM
7,C[C@H](NC(=O)C[C@@H]1CC[C@@H]2[C@H](COC[C@H](O)CN2C(=O)Nc2cccc(Cl)c2)O1)c1ccccc1,14.4 µM
8,C[C@@H]1CN([C@@H](C)CO)C(=O)Cc2cc(NS(C)(=O)=O)ccc2O[C@H]1CN(C)Cc1ccc(Cl)c(Cl)c1,8.49 µM
9,C[C@@H]1CN([C@H](C)CO)S(=O)(=O)c2ccc(/C=C/c3ccccc3)cc2O[C@H]1CN(C)Cc1ccc(C(=O)O)cc1,< 0.5 µM
10,O=C(C[C@@H]1CC[C@@H]2[C@H](COC[C@H](O)CN2C(=O)Nc2cc(Cl)cc(Cl)c2)O1)N1CCCCC1,1.41 µM
11,O=C(C[C@@H]1CC[C@H]2[C@@H](COC[C@H](O)CN2C(=O)Nc2ccc(Cl)c(Cl)c2)O1)NCc1ccc(F)cc1,1.3 µM
12,CCNC(=O)C[C@@H]1CC[C@H]2[C@@H](COC[C@H](O)CN2C(=O)Nc2ccc(Cl)c(Cl)c2)O1,7.98 µM
13,O=C1C[C@@](C(=O)NCCN2CCOCC2)(c2ccc([N+](=O)[O-])cc2)[C@@H](c2ccc(CO)cc2I)N1CC12CC3CC(CC(C3)C1)C2,18.8 µM
14,C[C@@H](NC(=O)C[C@H]1CC[C@@H]2[C@H](COC[C@H](O)CN2C(=O)Nc2cc(Cl)cc(Cl)c2)O1)c1ccccc1,10.9 µM
15,CNC(=O)C[C@H]1CC[C@@H]2[C@H](COC[C@H](O)CN2C(=O)Nc2ccc(Cl)c(Cl)c2)O1,4.12 µM
16,O=C(NCC[C@H]1CC[C@@H](NC(=O)Nc2cc(F)ccc2F)[C@H](CO)O1)Nc1ccc(Cl)cc1,18.5 µM
17,C[C@@H]1CN([C@@H](C)CO)C(=O)c2cccc(NC(=O)Nc3ccc(F)cc3)c2O[C@@H]1CN(C)Cc1ccc(C(F)(F)F)cc1,2.37 µM
18,O=C(NCC[C@@H]1CC[C@@H](NC(=O)C2CC2)[C@@H](CO)O1)Nc1ccc(C(F)(F)F)cc1,10.7 µM
